Measurements taken from ChEMBL document CHEMBL4483862, “Open-source discovery of chemical leads for next-generation chemoprotective antimalarials” (2018).

Test system: Plasmodium berghei
Experiment: Luciferase/luciferin-expressing antifolate-resistant parasites were used to infect a culture of HepG2 cells that were pre-incubated with compounds. Infected hepatocytes emit light due to the luciferase reaction. Assay results are presented as the percent inhibition of light emission compared to control. […]
Type: functional
Conditions: sporozoite; for IC90: read-out: LUCIFERASE INFECTION ASSAY - IC90
[1] = read-out: LUCIFERASE INFECTION ASSAY - IC50

SMILES: COc1ccc(/C=C(\C#N)C(=O)N(CCCN2C(=O)c3cccc4cccc(c34)C2=O)c2ccc(C)cc2C)cc1
- IC50 (FFLUC_HILL_SLOPE 3.25, FFLUC_R_SQUARED 0.523, read-out: LUCIFERASE INFECTION ASSAY - IC50): > 10 µM
- IC90: > 10 µM

SMILES: CC(C)(C)c1csc(-c2ccc(-n3cncn3)nc2)n1
- IC50 (HEPG2TOX_HILL_SLOPE 9.36, HEPG2TOX_R_SQUARED 0.478, read-out: LUCIFERASE INFECTION ASSAY - IC50): > 11.6 µM
- IC90: > 11.6 µM

SMILES: CCOc1ccc(-n2c(-c3ccc(Cl)cc3)c[n+]3c2SCC3)cc1
- IC50 (HEPG2TOX_HILL_SLOPE 17.5, HEPG2TOX_R_SQUARED 0.639, PBLUC_HILL_SLOPE 3.46, PBLUC_R_SQUARED 0.768, read-out: LUCIFERASE INFECTION ASSAY - IC50): 4.45 µM
- IC90: 8.41 µM

SMILES: CC(Sc1nnc(-c2ccc(C(C)(C)C)cc2)o1)C(=O)Nc1ncc(Cl)cc1Cl (stereo unspecified)
- IC50 (HEPG2TOX_HILL_SLOPE 7.53, HEPG2TOX_R_SQUARED 0.526, PBLUC_HILL_SLOPE 15.5, PBLUC_R_SQUARED 0.267, read-out: LUCIFERASE INFECTION ASSAY - IC50): 3.13 µM
- IC90: 3.61 µM

SMILES: COc1ccc(NS(=O)(=O)c2cccc(C(=O)Nc3ncc(C)s3)c2)cc1Br
- IC50 (HEPG2TOX_HILL_SLOPE 1.95, HEPG2TOX_R_SQUARED 0.754, PBLUC_HILL_SLOPE 9.08, 8.50, PBLUC_R_SQUARED 0.373, 0.408, read-out: LUCIFERASE INFECTION ASSAY - IC50): 5.79 µM
- IC90: 4.59 µM

SMILES: O=C(N/N=C/c1c(-c2ccccc2)nc2sc3c(n12)CCCC3)c1ccccc1
- IC50 (FFLUC_HILL_SLOPE 0.805, FFLUC_R_SQUARED 0.757, PBLUC_HILL_SLOPE 1.27, PBLUC_R_SQUARED 0.855, read-out: LUCIFERASE INFECTION ASSAY - IC50): 0.153 µM
- IC90: 0.858 µM

SMILES: C/C(=N\NC(N)=S)c1ccc(OCc2ncc(C(F)(F)F)cc2Cl)cc1
- IC50 (FFLUC_HILL_SLOPE 17.3, FFLUC_R_SQUARED 0.0449, HEPG2TOX_HILL_SLOPE 9.24, HEPG2TOX_R_SQUARED 0.314, PBLUC_HILL_SLOPE 1.92, PBLUC_R_SQUARED 0.719, read-out: LUCIFERASE INFECTION ASSAY - IC50): 1.46 µM
- IC90: 4.57 µM

SMILES: COc1ccc(C(C#N)=C2C=CC(=NO)C=C2)cc1
- IC50 (FFLUC_HILL_SLOPE 2.5, FFLUC_R_SQUARED 0.687, PBLUC_HILL_SLOPE 18.8, PBLUC_R_SQUARED 0.229, read-out: LUCIFERASE INFECTION ASSAY - IC50): 12.9 µM
- IC90: > 13.1 µM

SMILES: Clc1ccc(-c2csc3ncnc(Sc4nnnn4C4CC4)c23)cc1
- IC50 (HEPG2TOX_HILL_SLOPE 2.99, HEPG2TOX_R_SQUARED 0.963, PBLUC_HILL_SLOPE 2.19, PBLUC_R_SQUARED 0.132, read-out: LUCIFERASE INFECTION ASSAY - IC50): 8.41 µM
- IC90: > 10 µM

SMILES: N/C(=N\OC(=O)c1ccc2ncsc2c1)c1ccccc1
- IC50 (FFLUC_HILL_SLOPE 2.58, FFLUC_R_SQUARED 0.671, PBLUC_HILL_SLOPE 1.01, PBLUC_R_SQUARED 0.623, read-out: LUCIFERASE INFECTION ASSAY - IC50): 1.1 µM
- IC90: 9.73 µM

SMILES: CC(C)(C)c1cc(NC(=O)Nc2ccc(C#N)cc2)n(-c2ccccc2)n1
- IC50 (PBLUC_HILL_SLOPE 3.93, PBLUC_R_SQUARED 0.959, read-out: LUCIFERASE INFECTION ASSAY - IC50): 0.0279 µM
- IC90: 0.0487 µM

SMILES: C=CCn1cnnc1SCC(=O)c1cccn1C
- IC50 [1]: > 10 µM
- IC90: > 10 µM

SMILES: Cc1c(C)n(CC(C)C)c2ncnc(Nc3nccs3)c12
- IC50 [1]: > 10.9 µM
- IC90: > 10.9 µM

SMILES: CCOC(=O)c1sc(S(=O)(=O)Cc2ccccc2)c2c1CC(C)(C)CC2=O
- IC50 [1]: > 8.12 µM
- IC90: > 8.12 µM

SMILES: Clc1cccc(-c2ccnc3n[nH]c(-c4cccnc4)c23)c1
- IC50 (HEPG2TOX_HILL_SLOPE 2.64, HEPG2TOX_R_SQUARED 0.942, PBLUC_HILL_SLOPE 10.9, PBLUC_R_SQUARED 0.513, read-out: LUCIFERASE INFECTION ASSAY - IC50): 3.39 µM
- IC90: 4.14 µM

SMILES: Cc1ccc2cc(CN3CCCCC3C(N)=O)c(Cl)nc2c1C (stereo unspecified)
- IC50 [1]: > 10 µM
- IC90: > 10 µM

SMILES: CC(Sc1nnc(/C=C/c2ccc(F)cc2)[nH]1)C(=O)N(Cc1ccccc1)Cc1ccccc1 (stereo unspecified)
- IC50 (HEPG2TOX_HILL_SLOPE 2.54, HEPG2TOX_R_SQUARED 0.989, PBLUC_HILL_SLOPE 16.4, PBLUC_R_SQUARED 0.588, read-out: LUCIFERASE INFECTION ASSAY - IC50): 3.27 µM
- IC90: 3.74 µM

SMILES: COc1cc(OC)cc(C(=O)Nc2nc3ccc(C)cn3c2C(=O)NC2CCCCC2)c1
- IC50 (HEPG2TOX_HILL_SLOPE 1.81, HEPG2TOX_R_SQUARED 0.745, PBLUC_HILL_SLOPE 12.8, PBLUC_R_SQUARED 0.53, read-out: LUCIFERASE INFECTION ASSAY - IC50): 0.872 µM
- IC90: 1.03 µM

SMILES: Cc1sc2ncnc(Sc3nnc(-c4cccs4)n3-c3ccccc3)c2c1C
- IC50 (PBLUC_HILL_SLOPE 13.8, PBLUC_R_SQUARED 0.706, read-out: LUCIFERASE INFECTION ASSAY - IC50): 3.37 µM
- IC90: 3.96 µM

SMILES: O=C(NC1=C(Nc2ccc3c(c2)OCCO3)C(=O)c2ccccc2C1=O)c1ccc(Cl)cc1
- IC50 (FFLUC_HILL_SLOPE 16.8, FFLUC_R_SQUARED 0.568, PBLUC_HILL_SLOPE 3.91, PBLUC_R_SQUARED 0.215, read-out: LUCIFERASE INFECTION ASSAY - IC50): 6.65 µM
- IC90: > 10 µM

SMILES: O=C(Nc1ccc(OC(F)(F)F)cc1)Nc1cc(-c2ccccc2)n[nH]1
- IC50 (PBLUC_HILL_SLOPE 11.1, PBLUC_R_SQUARED 0.558, read-out: LUCIFERASE INFECTION ASSAY - IC50): 3.3 µM
- IC90: 4.02 µM

SMILES: Clc1ccc(-c2cnc3cnc(-c4cccnc4)cn23)cc1
- IC50 (HEPG2TOX_HILL_SLOPE 2.16, HEPG2TOX_R_SQUARED 0.901, PBLUC_HILL_SLOPE 2.19, PBLUC_R_SQUARED 0.923, read-out: LUCIFERASE INFECTION ASSAY - IC50): 0.659 µM
- IC90: 1.8 µM

SMILES: CC1CCc2[nH]c3ccc(C(=O)Nc4ccccc4N4CCCCC4)cc3c2C1 (stereo unspecified)
- IC50 (FFLUC_HILL_SLOPE 10.4, FFLUC_R_SQUARED 0.246, PBLUC_HILL_SLOPE 2.51, PBLUC_R_SQUARED 0.903, read-out: LUCIFERASE INFECTION ASSAY - IC50): 0.341 µM
- IC90: 0.818 µM

SMILES: CCCN1CCCC(NC(=S)Nc2ccc(Br)cc2C)C1 (stereo unspecified)
- IC50 [1]: > 8.91 µM
- IC90: > 8.91 µM

SMILES: O=C(Nc1cccc2c[nH]nc12)c1ccc(Oc2ccccc2)cc1
- IC50 (PBLUC_HILL_SLOPE 18.4, PBLUC_R_SQUARED 0.556, read-out: LUCIFERASE INFECTION ASSAY - IC50): 9.05 µM
- IC90: > 10 µM

SMILES: O=C(NC1CCCc2ccccc21)c1cc(Cl)nc(Cl)c1 (stereo unspecified)
- IC50 [1]: > 10 µM
- IC90: > 10 µM

SMILES: CCOc1cc(CNCc2nc3ccccc3[nH]2)ccc1OCc1cccs1
- IC50 (HEPG2TOX_HILL_SLOPE 15, HEPG2TOX_R_SQUARED 0.655, PBLUC_HILL_SLOPE 1.7, PBLUC_R_SQUARED 0.452, read-out: LUCIFERASE INFECTION ASSAY - IC50): 4.17 µM
- IC90: > 10 µM

SMILES: CCCn1nc(C(=O)N2CC(C)CC(C)C2)ccc1=O (stereo unspecified)
- IC50 [1]: > 10 µM
- IC90: > 10 µM

SMILES: O=C(Nc1ccc2nc(Cc3ccccc3)nn2c1)NC1CCCCC1
- IC50 (HEPG2TOX_HILL_SLOPE 5.83, HEPG2TOX_R_SQUARED 0.978, PBLUC_HILL_SLOPE 13.4, PBLUC_R_SQUARED 0.389, read-out: LUCIFERASE INFECTION ASSAY - IC50): 3.05 µM
- IC90: 3.6 µM

SMILES: CN(C)c1cccc(-c2ccc3nnc(-c4cscn4)n3c2)c1
- IC50 [1]: > 10 µM
- IC90: > 10 µM

SMILES: Cc1cccc(C2CC(=O)c3cnn(-c4nc(C)cc(C)n4)c3C2)c1 (stereo unspecified)
- IC50 (HEPG2TOX_HILL_SLOPE 1.23, HEPG2TOX_R_SQUARED 0.907, PBLUC_HILL_SLOPE 2.7, PBLUC_R_SQUARED 0.565, read-out: LUCIFERASE INFECTION ASSAY - IC50): 0.617 µM
- IC90: 1.39 µM

SMILES: Cc1ccccc1-n1c(SCC(=O)Nc2sc3c(c2C(N)=O)CCC3)nc2ccccc2c1=O
- IC50 (HEPG2TOX_HILL_SLOPE 1.4, HEPG2TOX_R_SQUARED 0.675, read-out: LUCIFERASE INFECTION ASSAY - IC50): > 10 µM
- IC90: > 10 µM

SMILES: CCN(CC(=O)Nc1ccccc1C(F)(F)F)CC(=O)N1CCc2ccccc21
- IC50 (HEPG2TOX_HILL_SLOPE 12.9, HEPG2TOX_R_SQUARED 0.752, PBLUC_HILL_SLOPE 284, PBLUC_R_SQUARED 0.135, read-out: LUCIFERASE INFECTION ASSAY - IC50): 7.36 µM
- IC90: 7.42 µM

SMILES: Cc1nn2c3ccccc3n(C)c2c1C(=O)N/N=C/c1ccc([N+](=O)[O-])o1
- IC50 (PBLUC_HILL_SLOPE 2.48, PBLUC_R_SQUARED 0.513, read-out: LUCIFERASE INFECTION ASSAY - IC50): 5.52 µM
- IC90: > 10 µM

SMILES: CC(=O)Nc1ccc2c(COC(=O)C(CC(C)C)NC(=O)c3ccc(Cl)cc3)cc(=O)oc2c1 (stereo unspecified)
- IC50 (FFLUC_HILL_SLOPE 0.303, FFLUC_R_SQUARED 0.675, read-out: LUCIFERASE INFECTION ASSAY - IC50): > 10 µM
- IC90: > 10 µM

SMILES: OCc1cccc(-c2ccc3ncc(-c4cccs4)n3n2)c1
- IC50 (HEPG2TOX_HILL_SLOPE 1.03, HEPG2TOX_R_SQUARED 0.934, PBLUC_HILL_SLOPE 12.1, PBLUC_R_SQUARED 0.638, read-out: LUCIFERASE INFECTION ASSAY - IC50): 3.38 µM
- IC90: 4.05 µM

SMILES: NC(=O)c1ccsc1NC(=O)CSc1ncc(-c2ccccc2)n1-c1ccccc1
- IC50 (HEPG2TOX_HILL_SLOPE 1.27, HEPG2TOX_R_SQUARED 0.954, PBLUC_HILL_SLOPE 1.14, PBLUC_R_SQUARED 0.72, read-out: LUCIFERASE INFECTION ASSAY - IC50): 0.447 µM
- IC90: 3.1 µM

SMILES: CC1CCC(C(C)C)C(OC(=O)C[n+]2cn(C)c3ccccc32)C1 (stereo unspecified)
- IC50 (HEPG2TOX_HILL_SLOPE 2.1, HEPG2TOX_R_SQUARED 0.908, PBLUC_HILL_SLOPE 16.2, PBLUC_R_SQUARED 0.404, read-out: LUCIFERASE INFECTION ASSAY - IC50): 3.31 µM
- IC90: 3.79 µM
